Reference: patent publication US20190209506A1, “METHODS OF REDUCING OR PREVENTING OXIDATION OF LDL OR LIPID MEMBRANES IN A SUBJECT IN NEED THEREOF” (Amarin Pharmaceuticals Ireland Limited, priority 2018, published 2019)

Legend:
[1] = Membrane cholesterol domain structural integrity, x-ray diffraction (Example 9); conditions: C/P 1.5:1
Description: Multilamellar vesicles (MLVs) were prepared as binary mixtures that include palmitoyloleoylphosphatidylcholine (POPC) (1.0 mg total phospholipid per sample) and cholesterol at an elevated cholesterol-to-phospholipid (C/P) mole ratio of 1.5:1. […] Samples were shell-dried under nitrogen gas and placed under vacuum for 3 hours to remove residual solvent at room temperature. After desiccation, each sample was resuspended in saline buffer (0.5 mM HEPES, 154 mM NaCl, pH 7.3) to yield a final phospholipid concentration of 2.5 mg/mL. Lipid suspensions were then vortexed for 3 minutes at ambient temperature to form MLVs.
Briefly, a 100 μL aliquot of each MLV preparation (containing 250 μg MLV) was transferred to a Lucite® sedimentation cell fitted with an aluminum foil substrate designed to collect MLVs into a single membrane pellet upon centrifugation. Samples were then loaded into a Sorvall AH-629 swinging bucket rotor (DuPont Corp., Wilmington, Del.) and centrifuged at 35,000 g, 5° C., for 90 minutes.
After centrifugal orientation, sample supernatants were aspirated and aluminum foil substrates, each supporting a single membrane pellet, were removed from the sedimentation cells. Sample pellets were dried for 5-10 minutes at ambient conditions, mounted onto curved glass supports, and placed in hermetically-sealed, brass or glass containers (for immediate analysis or temporary storage, respectively). All x-ray diffraction experiments were conducted at 20° C., 74% relative humidity. The latter was established by exposing membrane samples to saturated solutions of […] (K2C4H4O6.½H2O) for at least 1 hour prior to experimental analysis.
Oriented membrane samples were aligned at grazing incidence with respect to a collimated, mono-chromatic CuKα x-ray beam (Kα1 and Kα2 unresolved; λ=1.54 Å) produced by a Rigaku Rotaflex RU-200, high-brilliance microfocus generator (Rigaku-MSC, The Woodlands, Tex.) as previously described (Mason et al., Biophys. J., vol. 55(4), pages 769-778 (1989)). The samples were initially subjected to x-ray diffraction analysis at least 12 hours after formation of the membrane pellets and retested for up to several days. Analytical x-rays were generated by electron bombardment of a rotating copper anode and are filtered through a thin nickel foil to provide monochromatic radiation (λ=1.54 Å). Collimation of the x-ray beam was achieved using a single Franks mirror. Diffraction data were collected on a one-dimensional, position-sensitive electron detector (Hecus X-ray Systems, Graz, Austria) at a sample-to-detector distance of 150 mm from the sample site.
The d-space for any given membrane multi bilayer is a measurement of the unit cell periodicity of the membrane lipid bilayer (e.g., the distance from the center of one lipid bilayer to the next including surface hydration), and is calculated from Bragg's Law, hλ=2d sin θ, where h is the diffraction order, λ is the wavelength of the x-ray radiation (1.54 Å), d is the membrane lipid bilayer unit cell periodicity, and θ is the Bragg angle equal to one-half the angle between the incident beam and scattered beam.
The presence of cholesterol domains in a given membrane sample results in the production of distinct Bragg (diffraction) peaks having singular periodicity values of 34 and 17 Å (typically referred to as first- and second-order cholesterol domain peaks). Under the specific temperature and relative humidity conditions established for these experiments, the second-order, 17 Å cholesterol domain peak was well-delineated from other, neighboring cholesterol and phospholipid diffraction peaks and was thus used to quantitate relative cholesterol domain peak intensity. Routines written in Origin 8.6 (OriginLab Corporation, Northampton, Mass.) were used to determine total peak area (associated with all diffraction peaks in a given pattern) against which the second-order cholesterol domain peak was normalized.

[2] = tested on: human sdLDL; assay: Copper-induced sdLDL oxidation with fatty acids, TBARS/MDA (Example 14); type: biochemical; conditions: 1.0 μM
Description: Venous blood was collected from healthy volunteers into vacutainer tubes. Plasma was separated by centrifugation at 3000 g for 25 min at 4° C. and adjusted to a density of 1.020 g/mL with KBr. sdLDL was isolated from the plasma of healthy volunteers by iodixanol density gradient ultracentrifugation and adjusted to a final apolipoprotein concentration of 2 mg/mL. An aliquot of sdLDL (50 μL) was incubated with either 10 μL vehicle (ethanol) or 10 μL FA (EPA, ETE, AA, EA, DHA, DPA, ALA, LA or SA) treatment stock solution (100 μM) for 30 min at 37° C. Oxidation was initiated with addition of initiator CuSO4 (10.0 μM). At certain time points (0, 40, 60, and 120 minutes), […] were removed from each subfraction and combined with 1.0 mL thiobarbituric acid (0.5%), 10 μL trichloroacetic acid (10%), 10 μL butylated hydroxytoluene (BHT; 35 mM in ethanol), and 10 μL ethylenediaminetetraacetic acid (EDTA; 5 mM). Sample aliquots were incubated at 100° C. for 30 min and then assayed for the formation of thiobarbituric acid reactive substances (TBARS), which have a molar absorptivity (ε) value of 1.56×105 M^−1 cm^−1 at 532 nm and are largely derived from the reaction of thiobarbituric acid with MDA, a reactive aldehyde produced by sdLDL oxidation. Sample TBARS concentrations were determined spectrophotometrically by measuring sample absorbances against a standard curve derived from the hydrolysis of 1,1,3,3-tetramethoxypropane.

CC/C=C\C/C=C\C/C=C\C/C=C\C/C=C\CCCC(=O)O [EPA, cis-5,8,11,14,17-eicosapentaenoic acid]
% change Vs control (cholesterol domain peak intensity) ([1]; D/P mole ratio 1:30): −65.5 ± 17.1% | Relative Cholesterol Domain Peak Intensity ([1]; D/P mole ratio 1:30): 14.6±5 | reduction in cholesterol domain peaks compared to vehicle ([1]; D/P mole ratio 1:30): 65% | % change (vs. Control) ([1]; D/P mole ratio 1:60): −30.2 ± 27.9% | Relative Cholesterol Domain Peak Intensity ([1]; D/P mole ratio 1:60): 29.5 ± 10.9 | % change (vs. Control) ([1]; D/P mole ratio 1:90): −15.0 ± 12.6% | Relative Cholesterol Domain Peak Intensity ([1]; D/P mole ratio 1:90): 36.0 ± 3.1 | inhibition of lipoprotein oxidation versus vehicle ([2]; 40 minutes): 70% | inhibition of oxidation compared to vehicle ([2]; 60 minutes): 44% | MDA Equivalents (Mean ± SD) ([2]; time point 0 min): 0.30 ± 0.04 µM | MDA Equivalents (Mean ± SD) ([2]; time point 40 min): 3.14 ± 0.19 µM | MDA Equivalents (Mean ± SD) ([2]; time point 60 min): 6.42 ± 0.24 µM | MDA Equivalents (Mean ± SD) ([2]; time point 120 min): 12.46 ± 0.75 µM
